“Also recorded” adds a separate entry of the source. Where a name gives a salt, the structure may show the parent alone.

For assay [1] the following is noted: cited from earlier work.
Assay [2] deals with LPS-induced pulmonary neutrophilia in rats. The assay is described as follows: In Vivo Assay 1: LPS induced pulmonary neutrophilia in rats, intratracheally administered PDE4 inhibitors. The settings on record: for percentage mean inhibition of LPS-induced pulmonary neutrophilia / arithmetic mean percentage inhibition of LPS-induced pulmonary neutrophilia: rat, about 2 hours prior to LPS; for percentage mean inhibition of LPS-induced pulmonary neutrophilia: i.t. aqueous solution; for arithmetic mean percentage inhibition of LPS-induced pulmonary neutrophilia: i.t. dry powder blended in lactose; for duration of action: preliminary tests. Also on record: species or system rat. The text has this: This assay is an animal model of acute inflammation in the lung—specifically neutrophilia induced by lipopolysaccharide (LPS)—and allows the study of putative inhibition of such neutrophilia (anti-inflammatory effect) by an intratracheally (i.t.) administered PDE4 inhibitor (“drug”). The PDE4 inhibitors are suitably in dry powder, aqueous solution or aqueous suspension form. I.t. administration is one model of inhaled administration, allowing topical delivery to the lung.
Animals: Male CD (Sprague Dawley Derived) rats supplied by Charles River, United Kingdom are housed in groups of 5 rats per cage, acclimatised after delivery for at least 7 days with bedding/nesting material regularly changed, fed on SDS diet R1 pelleted food given ad lib, and supplied with daily-changed pasteurised animal grade drinking water.
Device for dry powder administration: For these studies, a Penn Century DP-4 dry powder intratracheal (i.t.) delivery device (insufflator) is used for administration of a dry powder blend of vehicle (inhalation grade lactose) and the PDE4 inhibitor compound or salt of the invention (“drug”). Each device is numbered and the sample loading chamber is unscrewed from the main device and weighed. The i.t. delivery needle is also weighed. The drug+lactose blend or inhalation grade lactose (vehicle control) is then added to the sample chamber and this is then re-weighed. The sample chamber is fitted back on to the main device to prevent any drug being lost. This procedure is repeated for all of the Penn century devices to be used in the study (one separate device for each animal). After dosing to the animals, the sample chambers and needles are re-weighed in order to determine the amount of sample that was expelled from the device.
Device for aqueous solution administration: A blunt dosing needle, whose forward end is slightly angled to the needle axis, is used, with a flexible plastic portex canula inserted into the needle. The portex cannula is inserted into the lumen of the blunt stainless steel dosing needle and this is carefully inserted into the back of the animal's throat and into the trachea via the larynx. A known volume (200 microliters) of the vehicle (0.2% Tween 80™ in saline) or of the solution (or suspension) drug composition is administered into the trachea using a plastic syringe that is attached to the portex cannula and dosing needle. A new internal cannula is used for each different drug group. After dosing, the needle is removed from the trachea and the animals are removed from the table and continually observed until they recover from the effects of anaesthesia. The animals are then returned to the holding cages and given free access to food and water, and are observed and any unusual behavioural changes noted. (Aqueous suspensions can be handled generally similarly.)
Drugs and Materials: Lipopolysaccharide (LPS) (Serotype:0127:B8, e.g. from Sigma, UK; e.g. L3129 prepared by phenol extraction) is dissolved in phosphate-buffered saline (PBS).
For dry powder, aqueous solution or aqueous suspension administration, PDE4 inhibitors are preferably used in size-reduced (e.g. micronised) form, for example according to the Micronisation Example(s) disclosed herein.
For dry powder administration of the drug, the PDE4 inhibitor compound or salt of the invention (drug) is administered as a dry powder blended with inhalation-grade (respiratory-grade) lactose, i.e. as a dry powder composition. The target quantity of dry powder composition administered i.t. to each animal is 2 mg. This remains constant throughout the studies. To achieve different doses, blends of the drug dry powder and lactose, containing different concentrations of the PDE4 inhibitor compound or salt of the invention (drug), are prepared. […]

The test system of assay [3] is LPS-induced nasal neutrophilia in rats. Description: In vivo assay 2: LPS induced nasal neutrophilia in rats, intranasally administered PDE4 inhibitors. The settings on record: rat, i.n. aqueous solution, about 30 minutes prior to LPS. The text has this:
This assay is an animal model of acute inflammation in the nose—specifically neutrophilia induced by lipopolysaccharide (LPS)—and allows the study of putative inhibition of such neutrophilia (anti-inflammatory effect) by an intranasally (i.n.) administered PDE4 inhibitor (“drug”). The PDE4 inhibitor is preferably in the form of an aqueous suspension or aqueous solution. Bolus, i.n. administration allows topical delivery to the nose.
Animals: Male CD rats (Sprague Dawley derived), weighing between 300-350 g are supplied by Charles River, UK and transported to the test site. On arrival at the test site, the animals are housed in groups of 4 or 5 per cage and complete a minimum acclimatisation period of 7 days. The animals are housed in solid bottomed cages using grade 8 sawdust. The bedding and nesting materials are changed 3 times per week. Diet comprises SDS diet R1 pelleted food given ad lib. Pasteurised animal grade drinking water is supplied and changed daily.
Lipopolysaccharide (Serotype: 0127:B8, e.g. available from Sigma, UK; e.g. L3129 prepared by phenol extraction) is used for all studies and is dissolved in phosphate-buffered saline (PBS).
Tween 80™ (e.g. available from Sigma e.g. 023K 01575). A mixture of 0.2% Tween 80™ in phosphate buffered saline (PBS) is prepared as vehicle for solution compositions. The Sigma catalogue 2004-2005 and The Handbook of Pharmaceutical Excipients (HPE) 4th edition 2003 pp. 479-483 define Tween 80™ as a brand of polysorbate 80 (according to HPE, polysorbate 80 is also named polyoxyethylene 20 sorbitan monooleate, i.e. having been copolymerised with about 20 moles of ethylene oxide for each mole of sorbitol and/or sorbitol anhydrides used).
The PDE4 inhibitor compound or salt of the invention (“drug”) is preferably used in size-reduced (e.g. micronised) form, for example according to the Micronisation Example(s) disclosed herein.
A solution of compound (0.7 mg/ml) is generally prepared by adding 0.2% Tween 80™ in phosphate buffered saline (PBS) to a pre-weighed micronised sample of the drug. The solution composition is sonicated, e.g. for approximately 2 min, and is observed to be a solution (if it is a solution) by visual assessment. A fixed volume of 50 microliters (25 microliters into each nostril) of either the drug-containing solution composition or a saline/Tween 80™ vehicle is administered to all animals. Each animal weighs, on average, 350 g. To achieve a dose of 100 μg/kg (100 ug/kg), each animal receives a total of 35 μg (35 ug) of the drug. The dose volume is 50 microliters (25 microliters to each nostril), and therefore a concentration of 35 μg (ug) per 50 microliters (0.7 mg/ml) is prepared. To achieve lower dose concentrations, serial dilutions are prepared in saline/Tween 80™. […]

For assay [4] the following is noted: cited from earlier work. The source holds these as a separate data set.
The conditions of assay [5]: orally 500 ug once daily for 9 days; daily intranasal allergen provocation (pollen extracts); cited from earlier work.

As to `COc1ccc(C2CNC(=O)NC2)cc1O[C@H]1C[C@@H]2CC[C@H]1C2` [CP80,633], in assay [1] (0.5% ointment, twice daily topical application), the “inflammatory parameters in atopic dermatitis patients” value is recorded as “reductions of inflammatory parameters”.

In the case of `CCc1nc2c(cnn2CC)c(NC2CCOCC2)c1CNC(=O)c1ccc(NC(=O)CCCCCCCN(C)CCO)cc1` [Example 1A1, N-{[1,6-Diethyl-4-(tetrahydro-2H-pyran-4-ylamino)-1H-pyrazolo[3,4-b]pyridin-5-yl]methyl}-4-({8-[(2-hydroxyethyl)(methyl)amino]octanoyl}amino)benzamide dihydrochloride], the “percentage mean inhibition of LPS-induced pulmonary neutrophilia” value was “about 33%” in assay [2] (about 10 micrograms/kg, dihydrochloride); “about 56%” in assay [2] (about 30 micrograms/kg, dihydrochloride); “about 76%” in assay [2] (about 100 micrograms/kg, dihydrochloride); “about 74%” in assay [2] (about 300 micrograms/kg).

As for `CCc1nc2c(cnn2CC)c(NC2CCOCC2)c1CNC(=O)c1ccc(NC(=O)CCCCCCCN(C)CCO)cc1` [Example 1A2, N-{[1,6-diethyl-4-(tetrahydro-2H-pyran-4-ylamino)-1H-pyrazolo[3,4-b]pyridin-5-yl]methyl}-4-({8-[(2-hydroxyethyl)(methyl)amino]octanoyl}amino)benzamide monohydrochloride], the “arithmetic mean percentage inhibition of LPS-induced pulmonary neutrophilia” value in assay [2] (about 10 micrograms/kg) was “about 29%”; in assay [2] (about 30 micrograms/kg) it was “about 44%”; in assay [2] (about 100 micrograms/kg), “about 39%”; in assay [2] (about 300 micrograms/kg) it was “about 55%”. The “percentage inhibition (arithmetic mean) of LPS-induced nasal neutrophilia” value in assay [3] (about 1 micrograms/kg) was “essentially no inhibition”; in assay [3] (about 3 micrograms/kg), “small and non-statistically-significant inhibition”; in assay [3] (about 10 micrograms/kg), “about 62%”; in assay [3] (about 100 micrograms/kg) it was “about 79%”.

With `CCc1nc2c(cnn2CC)c(NC2CCOCC2)c1CNC(=O)c1ccc(NC(=O)CCCCCCCN(C)CCO)cc1` [Example 1B, N-{[1,6-diethyl-4-(tetrahydro-2H-pyran-4-ylamino)-1H-pyrazolo[3,4-b]pyridin-5-yl]methyl}-4-({8-[(2-hydroxyethyl)(methyl)amino]octanoyl}amino)benzamide], the entries for the “percentage mean inhibition of LPS-induced pulmonary neutrophilia” value in assay [2] (about 10 micrograms/kg), in assay [2] (about 30 micrograms/kg) and in assay [2] (about 100 micrograms/kg) were “about 29%”, “about 75%” and “about 59%”, respectively.

As to `CCc1nc2c(cnn2CC)c(NC2CCOCC2)c1CNC(=O)c1ccc(NC(=O)CCCCCCCN(C)CCO)cc1` [N-{[1,6-diethyl-4-(tetrahydro-2H-pyran-4-ylamino)-1H-pyrazolo[3,4-b]pyridin-5-yl]methyl}-4-({8-[(2-hydroxyethyl)(methyl)amino]octanoyl}amino)benzamide], the duration of action was 4 h in assay [2] (after i.t. administration to the rat as a dry powder) and at least 2 h in assay [2] (after i.t. administration to the rat as an aqueous solution).

As to `COc1ccc([C@]2(C#N)CC[C@@H](C(=O)O)CC2)cc1OC1CCCC1` [cilomilast], the “forced expiratory volume in 1s (FEV1) in COPD patients” value in assay [4] (15 mg orally twice daily) is reported as “appears to improve forced expiratory volume in 1s (FEV1)”. Besides, the “antiinflammatory effects in COPD patients” value in assay [4] (human, in vivo) is “appears to have anti-inflammatory effects; also recorded: appears to have antiinflammatory effects”.

For `Nc1nc2c([nH]1)c(=O)n(CC1CC1)c(=O)n2CC1CC1` [cipamfylline], the “effectiveness in the treatment of atopic dermatitis patients” value in assay [1] (0.15% cream versus vehicle and hydrocortisone 17-butyrate (0.1%) cream) is “significantly more effective than vehicle, but significantly less effective than hydrocortisone 17-butyrate (0.1%) cream”.

In the case of `O=C(Nc1c(Cl)cncc1Cl)c1ccc(OC(F)F)c(OCC2CC2)c1` [roflumilast], the “FEV1 in COPD patients” value in assay [4] (human, in vivo) is “appears to show small improvements in FEV1”. Besides, the “rhinal airflow during the treatment period (compared to placebo)” value in assay [5] is on record as “effective in improving rhinal airflow”.

The record behind these values is patent US8003663B2, “Pyrazolo[3,4-b]pyridine compounds, and their use as PDE4 inhibitors” (Glaxo Group Limited, priority 2006, dated 2011).
